From US6806291B1, “Analgesic compounds, their synthesis and pharmaceutical compositions containing them” (The Foundation for the LSU Health Sciences Center, priority 2003, dated 2004)

Experiments:
[1] = tested on: Complete Freund's Adjuvant (CFA)-induced thermal hyperalgesia; experiment: CFA-induced thermal hyperalgesia (paw withdrawal latency, Hargreaves); type: in vivo, male CD-1 mice; details: 2.5 mmol/kg by oral gavage at 48 hours post-CFA; latency measured 30 minutes to 6 hour after drug; ANOVA drug effect p=0.014
Procedure: To determine whether the SCP-M series has analgesic activity, its effect on Complete Freund's Adjuvant (CFA)—induced thermal hyperalgesia was accessed. Under halothane anesthesia, male CD-1 mice were injected with 0.1 ml of CFA (Calbiochem, USA) to the glabrous surface of one hind paw. When injected into the footpad, CFA produces localized inflammation and hyperalgesia that appears within two hours and is present for 7 to 10 days (Iadorola, et al., 1988). At 48-hours post-CFA (time of peak hyperalgesia), each mouse received by oral gavage 2.5 mmol/kg of SCP-M1 or vehicle. The latency to withdraw the paw from a thermal stimulus (Hargreaves, et al., 1988) was measured using an analgesiometer (IITC Life Sciences, Inc., Woodland Hills, Calif.) according to the technique of Hargreaves, et al. The stimulus intensity was set to produce baseline latencies of about 10-15 seconds, and a 20 second maximum latency was used. Thermal hyperalgesia was measured before drug administration (pre-drug baseline), and again at 30 minutes, 1 hour, 2 hour, 3 hour, 4 hour, 5 hour, and 6 hour after drug administration.
No other statistically significant effects were found (time effect: F(6,90)=0.486, p=0.817; drugxtime interaction: F(6,90)=0.634, p=0.793). The effects of SCP-M1 on CFA-induced thermal hyperalgesia are shown as a percentage of pre-drug baseline in FIG. 1.

[2] = tested on: human hepatocytes (HEPG-2)
Procedure: (§1) The hepatotoxic effects of SCP-M1 were evaluated in human hepatocytes (HEPG-2) and in human primary cultures of normal liver cells. […] Phase contrast, microscopy, Trypan blue exclusion, Hoechst staining, and FAS-ligand and CAR (constitutive androstane receptor) induction were used as criteria. […] HEPG-2 cells were grown and maintained in EMEM medium containing NEAA (nonessential amino acids), supplemented with 10% fetal bovine serum (FBS), and incubated at 37° C. with a constant supply of 5% CO2. Primary human liver cells were grown in HCM medium (Walkersville, Md.), and maintained in HMM medium (Walkersville, Md.) at 37° C. with 5% CO2. 80% confluent cultures of HEPG2 and primary hepatocytes growing in 6- and 24-well plates, respectively were held 6-8 hr in serum-free medium (EMEM, 0.5% FBS for HEPG2 and HMM [Clonetics, Walkersville, Md.] for primary hepatocytes) before the addition of analgesics.

[3] = tested on: human hepatocytes in primary cultures; experiment: Hepatotoxic effect in primary human hepatocytes, Trypan blue exclusion and Hoechst staining; type: cell-based
Procedure: […]. […] […].
Hoechst staining was employed for detection of apoptosis. […] 45 min.

[4] = tested on: CAR (constitutive androstane receptor)
Procedure: as §1
(§2) The up-regulation of FAS-ligand (FAS-L) and activation of CAR (constitutive androstane receptor) were analyzed by Western blot. Briefly, the cell extracts were made, and adjusted for protein concentrations by the Bio-rad method. About 15-20 μg protein were loaded onto an 8-16% gel (Bio-rad), and electrophoresis was conducted for 2 hr at 120 V. The proteins were transferred onto nitrocellulose membrane at 30 V for 60 min at 4° C.

FAS-ligand = tested on: FAS-ligand
Procedure: as §1, §2

CAR activation [4]	Structure (SMILES)	analgesic effect on CFA-induced thermal hyperalgesia vs vehicle treated controls [1]	apoptotic cell death by Hoechst staining [2]	apoptosis by Trypan blue exclusion and Hoechst staining ([3]; human)	pro-apoptotic FAS-ligand up-regulation (FAS-ligand)	apoptosis by Trypan blue exclusion and Hoechst staining ([3]; human hepatocytes in primary cultures, treated 6-8 hr at 37° C.)
reduced effects	O=C(CNS(=O)(=O)c1ccccc1C(=O)O)Nc1ccc(O)cc1 [SCP-M1, 2-{[(4-hydroxyphenyl)carbamoyl]methylsulfamoyl}benzoic acid]	significant analgesic effect	practically ineffective in inducing cell death	enhanced apoptosis was caused by acetaminophen but not SCP-M1	reduced effects	
	CC(=O)Nc1ccc(O)cc1 [acetaminophen, reference compound]					enhanced apoptosis
